Measured values: patent publication US10149876B2, “Tripterygium wilfordii extracts to overcome chemotherapy resistance” (WESTERN UNIVERSITY OF HEALTH SCIENCES, priority 2012, dated 2018)
Values joined by “and” are separate entries in the source; they are usually repeats but may differ in a detail not shown here. Equal values may be shown once. Read-outs that look alike come from different tables or passages of the source.

Assays:
Assay type in all cases: cell-based, human
[1] = test system: SkBr3 cells; experiment: SRB cell viability assay, lapatinib-sensitive SkBr3 cells; details: for mean A at 565 nm: no chemosensitizing pre-treatment, background = 0.047
Protocol: (§1) Cell culture of the above cell lines was performed as described in Example 2, except that 5,000, rather than 3,000 cells were plated per well for the K562, K562/Dox, BT474, SkBr3 lines.
(§2) Table 17 also contains the serially-diluted concentrations of drugs that each cell line was tested against.
FIG. 13 summarizes the data of Tables 32-33 in a graphical format.

[2] = test system: BT474-TxR cells; experiment: SRB cell viability assay, Herceptin-resistant BT474-TxR cells; details: for viability at 0.001 µM / viability at 0.02 µM / viability at 0.067 µM / viability at 0.2 µM / viability at 0.67 µM / viability at 2 µM / viability at 6.7 µM / viability at 20 µM / IC50: Homo sapiens; for viability at 0.001 µM / viability at 0.02 µM / viability at 0.067 µM / viability at 0.2 µM / viability at 0.67 µM / viability at 2 µM / viability at 6.7 µM / viability at 20 µM / mean A at 565 nm: 72 h; for IC50: lapatinib, BT474-TxR
Protocol: PC3-TxR cells were plated into sterile, F-bottom Cellstar® 96 well cell culture plates with lids (Cat #655180, Purchased from Greiner Bio-one, Monroe, N.C.) by placing into each well, 100 μl of medium containing 3000 cells in RPMI 1640 supplemented with 10% fetal bovine serum (Thermo Scientific, Logan, Utah) and a solution of penicillin (100 U/ml) and streptomycin (100 μg/ml) (Life Technologies Grand Island, N.Y.). The cells were at passage 52 at the time of plating. Triplicate wells were assigned to each experimental condition tested, and a 24 hour recovery period for the cells following the seeding of the wells was allowed. During the recovery period, the cells were incubated at 37° C. and 5% CO2.
The LGT-E was prepared by adding an appropriate amount of LGT-E powder to DMSO to form a 500 mg/ml stock solution. The stock solution was alternately vortexed and sonicated until the LGT-E powder went into solution. The stock solution was diluted in RPMI 1640 medium (Mediatech, Manassas, Va., or Life Technologies Grand Island, NY) to reach the desired concentrations of LGT-E (e.g., 12, 25, or 60 μg/ml).
Pretreatment of the cells with LGT-E was carried out by aspirating the media from the wells, followed by adding 50 μl of LGT-E solution containing concentrations of either 12 or 25 μg/ml of LGT-E solution and incubation of the cells for two hours under conditions of 37° C. and 5% CO2.
Media was aspirated from each well, and replaced with a 10% solution of cold trichloroacetic acid (TCA) (Cat #: T6399, purchased from Sigma-Aldrich), and incubated for one hour at 4° C. After the TCA incubation, the TCA solution was aspirated, and the cells were washed five times with tap water. After removing the last wash, the plates were left with lids off at room temperature until the surfaces were dry, which took one to two hours. Then 50 μl of a 0.4% solution of sul-forhodamine B (SRB) sodium salt (Cat #: S9012, purchased from Sigma-Aldrich) was added to each well and the plates were incubated at room temperature for 20 to 30 minutes. Afterwards, the wells were washed five times with a 1% acetic acid solution in 10 mM TRIS base (Cat#: 161-0719, purchased from Bio-Rad Laboratories, Hercules, Calif.). The plates were subsequently left to dry for several hours or overnight. SRB that remained in the dried wells was solubilized by adding 100 μl of SRB solubilization solution (10 mM TRIS base) to each well, and placing the plates either on a gently-moving shaker or letting the plates remain stationary at room temperature until the SRB dissolves, which takes about five to ten minutes. The amount of SRB in each well, which correlated directly to the number of living cells at fixation, was determined spectrophotometrically at an absorbance of 565 nm by a microplate reader.

[3] = test system: BT474 cells; experiment: SRB cell viability assay, Herceptin-sensitive BT474 cells; details: for mean A at 565 nm: 72 h, background = 0.046
Protocol: as §1, §2

- IC50 ([2]; line of LGT-E 25 μg/ml, read-out: IC50 of drug when cells treated with drug only): 11 µM and 6.39 µg/mL
- IC50 ([3]; Homo sapiens, BT-474, read-out: IC50 of drug when cells treated with drug only): 116 nM and 0.067 µg/mL
Structure (SMILES): CS(=O)(=O)CCNCc1ccc(-c2ccc3ncnc(Nc4ccc(OCc5cccc(F)c5)c(Cl)c4)c3c2)o1 [lapatinib]
- IC50 ([1]; Homo sapiens, SK-BR-3, read-out: IC50 of drug when cells treated with drug only): 241 nM and 0.14 µg/mL
- mean A at 565 nm ([1]; Lapatinib 0.001 μM): 2.203
- mean A at 565 nm ([1]; Lapatinib 0.067 μM): 1.707
- mean A at 565 nm ([1]; Lapatinib 0.2 μM): 1.314
- mean A at 565 nm ([1]; Lapatinib 0.67 μM): 0.708
- mean A at 565 nm ([1]; Lapatinib 2 μM): 0.347
- mean A at 565 nm ([1]; Lapatinib 6.7 μM): 0.211
- mean A at 565 nm ([1]; Lapatinib 20 μM): 0.221
- viability at 0.001 µM ([2]; Lapatinib 0.001 μM, no LGT-E pre-treatment (control to Table 28)): 100%
- viability at 0.001 µM ([2]; Lapatinib 0.001 μM, no LGT-E pre-treatment (control to Table 30)): 100%
- viability at 0.001 µM ([2]; Lapatinib 0.001 μM, pre-treated with 25 μg/ml LGT-E): 100%
- viability at 0.001 µM ([2]; Lapatinib 0.001 μM, pre-treated with […] LGT-E): 100%
- viability at 0.02 µM ([2]; Lapatinib 0.02 μM, no LGT-E pre-treatment (control to Table 28)): 97.3%
- viability at 0.02 µM ([2]; Lapatinib 0.02 μM, no LGT-E pre-treatment (control to Table 30)): 82.6%
- viability at 0.02 µM ([2]; Lapatinib 0.02 μM, pre-treated with 25 μg/ml LGT-E): 85.8%
- viability at 0.02 µM ([2]; Lapatinib 0.02 μM, pre-treated with […] LGT-E): 94%
- viability at 0.067 µM ([2]; Lapatinib 0.067 μM, no LGT-E pre-treatment (control to Table 28)): 97.6%
- viability at 0.067 µM ([2]; Lapatinib 0.067 μM, no LGT-E pre-treatment (control to Table 30)): 91.8%
- viability at 0.067 µM ([2]; Lapatinib 0.067 μM, pre-treated with 25 μg/ml LGT-E): 77.3%
- viability at 0.067 µM ([2]; Lapatinib 0.067 μM, pre-treated with […] LGT-E): 91.3%
- viability at 0.2 µM ([2]; Lapatinib 0.2 μM, no LGT-E pre-treatment (control to Table 28)): 84.7%
- viability at 0.2 µM ([2]; Lapatinib 0.2 μM, no LGT-E pre-treatment (control to Table 30)): 76.9%
- viability at 0.2 µM ([2]; Lapatinib 0.2 μM, pre-treated with 25 μg/ml LGT-E): 67.9%
- viability at 0.2 µM ([2]; Lapatinib 0.2 μM, pre-treated with […] LGT-E): 70.9%
- viability at 0.67 µM ([2]; Lapatinib 0.67 μM, no LGT-E pre-treatment (control to Table 28)): 68.7%
- viability at 0.67 µM ([2]; Lapatinib 0.67 μM, no LGT-E pre-treatment (control to Table 30)): 70.5%
- viability at 0.67 µM ([2]; Lapatinib 0.67 μM, pre-treated with 25 μg/ml LGT-E): 57.4%
- viability at 0.67 µM ([2]; Lapatinib 0.67 μM, pre-treated with […] LGT-E): 59.9%
- viability at 2 µM ([2]; Lapatinib 2 μM, no LGT-E pre-treatment (control to Table 28)): 65.2%
- viability at 2 µM ([2]; Lapatinib 2 μM, no LGT-E pre-treatment (control to Table 30)): 60.6%
- viability at 2 µM ([2]; Lapatinib 2 μM, pre-treated with 25 μg/ml LGT-E): 50.4%
- viability at 2 µM ([2]; Lapatinib 2 μM, pre-treated with […] LGT-E): 53.5%
- viability at 6.7 µM ([2]; Lapatinib 6.7 μM, no LGT-E pre-treatment (control to Table 28)): 59.4%
- viability at 6.7 µM ([2]; Lapatinib 6.7 μM, no LGT-E pre-treatment (control to Table 30)): 55.1%
- viability at 6.7 µM ([2]; Lapatinib 6.7 μM, pre-treated with 25 μg/ml LGT-E): 37.1%
- viability at 6.7 µM ([2]; Lapatinib 6.7 μM, pre-treated with […] LGT-E): 46.3%
- viability at 20 µM ([2]; Lapatinib 20 μM, no LGT-E pre-treatment (control to Table 28)): 52.3%
- viability at 20 µM ([2]; Lapatinib 20 μM, no LGT-E pre-treatment (control to Table 30)): 43.8%
- viability at 20 µM ([2]; Lapatinib 20 μM, pre-treated with 25 μg/ml LGT-E): 24.9%
- viability at 20 µM ([2]; Lapatinib 20 μM, pre-treated with […] LGT-E): 40.6%
- IC50 ([2]; LGT-E 25 μg/ml pre-treatment, read-out: IC50 of drug when cells pre-treated with Chemosensitizing Agent before drug treatment): 2 µM and 1.16 µg/mL
- mean A at 565 nm ([2]; Lapatinib 0.001 μM, no LGT-E pre-treatment (control to Table 28), background = 0.045): 1.135
- mean A at 565 nm ([2]; Lapatinib 0.001 μM, no LGT-E pre-treatment (control to Table 30), background = 0.047): 1.176
- mean A at 565 nm ([2]; Lapatinib 0.001 μM, pre-treated with 25 μg/ml LGT-E, background = 0.047): 0.957
- mean A at 565 nm ([2]; Lapatinib 0.001 μM, pre-treated with […] LGT-E, background = 0.045): 0.997
- mean A at 565 nm ([2]; Lapatinib 0.02 μM, no LGT-E pre-treatment (control to Table 28), background = 0.045): 1.104
- mean A at 565 nm ([2]; Lapatinib 0.02 μM, no LGT-E pre-treatment (control to Table 30), background = 0.047): 0.971
- mean A at 565 nm ([2]; Lapatinib 0.02 μM, pre-treated with 25 μg/ml LGT-E, background = 0.047): 0.821
- mean A at 565 nm ([2]; Lapatinib 0.02 μM, pre-treated with […] LGT-E, background = 0.045): 0.937
- mean A at 565 nm ([2]; Lapatinib 0.067 μM, no LGT-E pre-treatment (control to Table 30), background = 0.047): 1.079
- mean A at 565 nm ([2]; Lapatinib 0.067 μM, pre-treated with 25 μg/ml LGT-E, background = 0.047): 0.740
- mean A at 565 nm ([2]; Lapatinib 0.067 μM, pre-treated with […] LGT-E, background = 0.045): 0.911
- mean A at 565 nm ([2]; Lapatinib 0.2 μM, no LGT-E pre-treatment (control to Table 28), background = 0.045): 0.961
- mean A at 565 nm ([2]; Lapatinib 0.2 μM, no LGT-E pre-treatment (control to Table 30), background = 0.047): 0.905
- mean A at 565 nm ([2]; Lapatinib 0.2 μM, pre-treated with 25 μg/ml LGT-E, background = 0.047): 0.650
- mean A at 565 nm ([2]; Lapatinib 0.2 μM, pre-treated with […] LGT-E, background = 0.045): 0.707
- mean A at 565 nm ([2]; Lapatinib 0.67 μM, no LGT-E pre-treatment (control to Table 28), background = 0.045): 0.780
- mean A at 565 nm ([2]; Lapatinib 0.67 μM, no LGT-E pre-treatment (control to Table 30), background = 0.047): 0.829
- mean A at 565 nm ([2]; Lapatinib 0.67 μM, pre-treated with 25 μg/ml LGT-E, background = 0.047): 0.549
- mean A at 565 nm ([2]; Lapatinib 0.67 μM, pre-treated with […] LGT-E, background = 0.045): 0.598
- mean A at 565 nm ([2]; Lapatinib 2 μM, no LGT-E pre-treatment (control to Table 28), background = 0.045): 0.739
- mean A at 565 nm ([2]; Lapatinib 2 μM, no LGT-E pre-treatment (control to Table 30), background = 0.047): 0.712
- mean A at 565 nm ([2]; Lapatinib 2 μM, pre-treated with 25 μg/ml LGT-E, background = 0.047): 0.482
- mean A at 565 nm ([2]; Lapatinib 2 μM, pre-treated with […] LGT-E, background = 0.045): 0.533
- mean A at 565 nm ([2]; Lapatinib 6.7 μM, no LGT-E pre-treatment (control to Table 28), background = 0.045): 0.674
- mean A at 565 nm ([2]; Lapatinib 6.7 μM, no LGT-E pre-treatment (control to Table 30), background = 0.047): 0.648
- mean A at 565 nm ([2]; Lapatinib 6.7 μM, pre-treated with 25 μg/ml LGT-E, background = 0.047): 0.355
- mean A at 565 nm ([2]; Lapatinib 6.7 μM, pre-treated with […] LGT-E, background = 0.045): 0.461
- mean A at 565 nm ([2]; Lapatinib 20 μM, no LGT-E pre-treatment (control to Table 28), background = 0.045): 0.594
- mean A at 565 nm ([2]; Lapatinib 20 μM, no LGT-E pre-treatment (control to Table 30), background = 0.047): 0.515
- mean A at 565 nm ([2]; Lapatinib 20 μM, pre-treated with 25 μg/ml LGT-E, background = 0.047): 0.239
- mean A at 565 nm ([2]; Lapatinib 20 μM, pre-treated with […] LGT-E, background = 0.045): 0.405
- viability at 0.001 µM ([3]; Homo sapiens, BT-474, 72 h): 100%
- viability at 0.05 µM ([3]; Homo sapiens, BT-474, 72 h): 65.7%
- viability at 0.167 µM ([3]; Homo sapiens, BT-474, 72 h): 52.1%
- viability at 0.5 µM ([3]; Homo sapiens, BT-474, 72 h): 26.9%
- viability at 1.67 µM ([3]; Homo sapiens, BT-474, 72 h): 21.1%
- viability at 5 µM ([3]; Homo sapiens, BT-474, 72 h): 14.1%
- viability at 16.7 µM ([3]; Homo sapiens, BT-474, 72 h): 8%
- viability at 50 µM ([3]; Homo sapiens, BT-474, 72 h): 2.3%
- mean A at 565 nm ([3]; Lapatinib 0.001 μM): 1.688
- mean A at 565 nm ([3]; Lapatinib 0.167 μM): 0.880
- mean A at 565 nm ([3]; Lapatinib 0.5 μM): 0.453
- mean A at 565 nm ([3]; Lapatinib 5 μM): 0.238
- mean A at 565 nm ([3]; Lapatinib 16.7 μM): 0.136
- mean A at 565 nm ([3]; Lapatinib 50 μM): 0.038
